Measurements taken from the NIST ThermoML archive (doi:10.1021/je049691v).
Numbers after ± are expanded uncertainties.

Settings: 101.33 kPa, Liquid, Vibrating tube method

`CO` [methanol] gave a mass density (298.15 K) of 786.58 ± 0.13 kg/m3.

In the case of `NCCO` [2-aminoethan-1-ol], the mass density (297.15 K) is reported as 1012.94 ± 0.13 kg/m3.
